By Kd is commonly meant the concentration at which binding is half-saturated.

Like-named read-outs stand apart in the source and are kept apart here.

Data on 6 molecules can be found in publication PMC10780766, “From Bench to Bedside: Patient-Oriented Radiopharmaceutical Development in Nuclear Medicine Based on the Example of [^89Zr]Zr-PSMA-DFO” (Molecules, 2023).

Data set [1] can be described thus: Storage of iron-free precursor in aqueous solution, then labeling, cell binding and internalization. It is filed as physicochemical. Conditions: storage at 5 °C in an aqueous solution for 6 months. From the text: Such synthesis modules have been specifically designed to enable the versatile and efficient routine production of various radiopharmaceuticals while adhering to GMP requirements. The concept of disposable cassettes pursued in this approach allows the user to label different radionuclides on the same synthesis device without the risk of cross-contamination. The disposable cassettes include all necessary vessels, reagents, and purification columns. The automated process concludes with a final sterile filtration, including a filter integrity test. Iron removal should therefore take place before the actual labeling process. We wanted to verify whether it is possible to establish a stock of an iron-free PSMA-DFO precursor, stored in an aqueous solution at 4 °C in the refrigerator, and to determine its shelf life. This was done by investigating whether the iron-free precursor can be labeled with zirconium-89 after several months of storage without compromising the yield, cell binding, and internalization.

Data set [2] has as its system PSMA binding sites (PSMA-positive LNCaP cell lines). Details: method as in PMID 34370181. The following applies: LNCaP cells; cited from earlier work.
The test system of data set [3] is PSMA (prostate-specific membrane antigen) on prostate cancer cells. Details: method as in PMID 34370181. The following applies: cited from earlier work.
Data set [4] has the same test system. Details: method as in PMID 34370181. The following applies: cited from earlier work. This is another data set of the same source.
Another data set concerns LNCaP tumor xenograft. Details: method as in PMID 34370181. Conditions: LNCaP tumor xenografts, n = 5, cited from earlier work.
The subject of a further data set is LNCaP tumors. Details: method as in PMID 34370181. Conditions: cited from earlier work.
On the set-up of data set [5]: method as in PMID 34370181. The following applies: up to 7 days at 37 °C; cited from earlier work.
For a further data set, the system named is PSMA-positive lesions. Details: method as in PMID 34326129. Conditions: cited from earlier work.

As to `CC(=O)N(O)CCCCCNC(=O)CCC(=O)N(O)CCCCCNC(=O)CCC(=O)N(O)CCCCCNC(=O)CCC(=O)NCC1CCC(C(=O)NC(Cc2ccc3ccccc3c2)C(=O)NCCCCC(NC(=O)NC(CCC(=O)O)C(=O)O)C(=O)O)CC1` (stereo not shown) [N-sucDFO-PSMA], the “Chemical reactivity, specific binding and internalization after storage” value in data set [1] is reported as “remained unaffected”.
In the case of `COc1nc(F)ccc1C(=O)NCCCCC(NC(=O)NC(CCC(=O)O)C(=O)O)C(=O)O` (stereo not shown) [[^18F]F-JK-PSMA 7], the Kd in data set [2] is 5.07 ± 0.45 nM.
Regarding `COc1nc([18F])ccc1C(=O)NCCCCC(NC(=O)NC(CCC(=O)O)C(=O)O)C(=O)O` (stereo not shown) [[^18F]F-JK-PSMA 7], in data set [2], the Bmax was 2702 ± 61 fmol/10^6 Cells. Also, the “Specific binding as a percentage of the total cellular activity” value (“Specific binding as a percentage” for short) in data set [3] (0.5 h) was 23.8 ± 0.6%; in data set [3] (1 h), 32.6 ± 0.4%; in data set [3] (2 h), 38.8 ± 1.3%; in data set [3] (3 h), 45.2 ± 1.9%; in data set [3] (5 h), 45.8 ± 0.4%. The “Specific internalization as a percentage of the total cellular activity” value (shortened to “Specific internalization as a percentage”) is 4.7 ± 0.4% in data set [4] (0.5 h); 11.1 ± 0.7% in data set [4] (1 h); 17.2 ± 1.3% in data set [4] (2 h); 20.8 ± 0.6% in data set [4] (3 h); 21.8 ± 0.3% in data set [4] (5 h). For the same molecule, the tumor/blood ratio in the data set on LNCaP tumor xenograft (4 h after i.v. injection) was 175 ± 30. For the same molecule, in the data set on LNCaP tumor xenograft (4 h after i.v. injection), the tumor/muscle ratio was 114 ± 14.
For the molecule `O=C([O-])CN(CCN(CC(=O)[O-])Cc1cc(CCC(=O)NCCCCCC(=O)NCCCC[C@H](NC(=O)N[C@@H](CCC(=O)O)C(=O)O)C(=O)O)ccc1[O-])Cc1cc(CCC(=O)O)ccc1[O-].[68Ga+3].[OH3+]` [[^68Ga]Ga-PSMA 11], the Bmax in data set [2] was 1746 ± 53 fmol/10^6 Cells. The Kd in data set [2] was 5.15 ± 0.6 nM. Moreover, the “Specific binding as a percentage” value in data set [3] (0.5 h) was 27.7 ± 0.7%; in data set [3] (1 h) it was 35.3 ± 3.1%; in data set [3] (2 h) it was 42.0 ± 1.2%; in data set [3] (3 h), 46.3 ± 2.1%; in data set [3] (5 h), 48.3 ± 1.2%. In addition, the “Specific internalization as a percentage” value in data set [4] (0.5 h) was 8.0 ± 0.4%; in data set [4] (1 h) it was 14.0 ± 1.9%; in data set [4] (2 h) it was 20.3 ± 1.5%; in data set [4] (3 h) it was 23.3 ± 0.8%; in data set [4] (5 h), 27.4 ± 1.6%. In the data set on LNCaP tumor xenograft (4 h after i.v. injection), the tumor/blood ratio is 112 ± 57. Besides, the tumor/muscle ratio in the data set on LNCaP tumor xenograft (4 h after i.v. injection) is recorded as 58 ± 36.
Take `CC(=O)N([O-])CCCCCNC(=O)CCC(=O)N([O-])CCCCCNC(=O)CCC(=O)N([O-])CCCCCNC(=O)CCC(=O)NCC1CCC(C(=O)NC(Cc2ccc3ccccc3c2)C(=O)NCCCCC(NC(=O)NC(CCC(=O)O)C(=O)O)C(=O)O)CC1.[89Zr+4]` (stereo not shown) [[^89Zr]Zr-PSMA-DFO]: the Bmax in data set [2] is listed as 1428 ± 42 fmol/10^6 Cells. Moreover, the Kd in data set [2] was 4.97 ± 0.57 nM. In addition, the “Specific binding as a percentage” value in data set [3] (0.5 h) was 29.1 ± 2.1%; in data set [3] (1 h), 38.5 ± 2.3%; in data set [3] (2 h), 46.5 ± 1.3%; in data set [3] (3 h), 48.8 ± 1.0%; in data set [3] (5 h) it was 49.4 ± 1.3%. Further, the “Specific internalization as a percentage” value is 9.5 ± 0.6% in data set [4] (0.5 h); 15.3 ± 1.0% in data set [4] (1 h); 22.3 ± 1.0% in data set [4] (2 h); 24.4 ± 0.6% in data set [4] (3 h); 30.4 ± 1.3% in data set [4] (5 h). Moreover, in the data set with LNCaP tumor xenograft (24 h after i.v. injection), the tumor/blood ratio is given as 309 ± 89. Moreover, the tumor/muscle ratio in the data set on LNCaP tumor xenograft (24 h after i.v. injection) is 450 ± 38. Also, the “Tumor visualization at later time points” value in the data set on LNCaP tumors (PET scans up to 48 h after injection) is given as “clear tumor visualization”. Moreover, the “Radioactive background radiation in the kidneys and bladder” value in the data set with LNCaP tumors (after 48 h, mice with LNCaP tumor xenografts) is reported as “minimal”. Further, in the data set with LNCaP tumors (early time points (1 h after injection)), the “Ability to visualize tumors compared with [68Ga]Ga-PSMA-11 or [18F]F-JK-PSMA-7” value is “similar”. The “Stability in human serum” value in data set [5] is given as “very high stability”. In addition, the “Stability in phosphate-buffered saline (PBS)” value in data set [5] is recorded as “very high stability”. Also, in the data set on PSMA-positive lesions, the “Detected lesions whose validity was supported (histology, follow-up after radiation therapy, additional imaging)” value is listed as 14 out of 15. The “Level of radioactivity in the 15 lesions (SUVmax) versus the original PET scans” value with PSMA-positive lesions is reported as “significantly higher”. For the same molecule, the “Number of PSMA-positive lesions detected” value in the data set on PSMA-positive lesions (in 8 out of 14 patients) is 15. In addition, the “Patients in whom PSMA-positive lesions were detected” value with PSMA-positive lesions (patients with BCR and initially negative PET scans using the usual tracers) is given as 8 out of 14.
For the molecule [^177Lu]Lu-PSMA 617, the Bmax in data set [2] is recorded as 2021 ± 66 fmol/10^6 Cells. Moreover, the dissociation constant (Kd) in data set [2] was 5.81 ± 0.71 nM. The “Specific binding as a percentage” value in data set [3] (0.5 h) is given as 16.0 ± 0.2%; in data set [3] (1 h), 19.7 ± 1.1%; in data set [3] (2 h), 30.4 ± 1.0%; in data set [3] (3 h), 35.5 ± 1.0%; in data set [3] (5 h), 40.7 ± 2.4%. In addition, the “Specific internalization as a percentage” value in data set [4] (0.5 h) is 4.1 ± 0.1%; in data set [4] (1 h) it was 6.7 ± 0.1%; in data set [4] (2 h), 12.8 ± 1.3%; in data set [4] (3 h) it was 16.9 ± 0.2%; in data set [4] (5 h), 22.9 ± 0.9%.
